As a reminder, the MBC is the smallest concentration meeting the test's criterion for killing. Read a high MBC as weaker bactericidal potency. Broadly, the MIC is the least concentration at which growth counts as inhibited. For orientation: inhibition means the change of the read-out against control, counted positive when it falls.

This note sets out measurements from patent US10905691B2, “Use of triazolo(4,5-d)pyrimidine derivatives for prevention and treatment of bacterial infection” (Universite de Liege, priority 2016, dated 2021).

≈ marks a conversion by molar mass, not a printed value.

Assay [1] concerns S. agalactiae (ATCC 12386). Description: MBC and MDK99.9 determination (CFU counting). Type of assay: cell-based, Streptococcus agalactiae. As to the method:
(§1) Further experiments were conducted using S. agalactiae (ATCC 12386), as clinically relevant Gram-positive bacterial strains in order to determine the Minimal Inhibitory Concentration (MIC) which is the minimal concentration required to prevent bacterial growth; the Minimal Bactericidal Concentration (MBC) which determines the lowest concentration at which an antimicrobial agent kill a particular microorganism and a Minimum Duration for killing 99.9% bacteria (MDK99.9) which is a tolerance metric according to the EUCAST.
MBC and MDK99.9 determination: A single colony selected from S. agalactiae (ATCC 12386) is resuspended and cultured in the appropriate medium (TSB, or BHI) overnight (O/N) in aerobic conditions (37° C. with 220 rpm shaking), next day a 1:100 inoculum in the appropriate medium was incubated in aerobic conditions for 2 h. The culture is then challenged with triafluocyl at MIC concentration or higher concentrations. Bacterial growth was measured after different time intervals by counting the colony-forming units after plating appropriate culture dilutions on BHI agar plates. […] And the real time needed is defined as the MDK99.9. MBC for Triafluocyl against S. agalactiae (ATCC 12386) was 40 μg/ml. MDK99.9 for Triafluocyl against S. agalactiae (ATCC 12386) was 1 hour.

The test system of the next assay is S. aureus (ATCC 25904). Description: Growth kinetics in logarithmic phase (OD600 and viable count). The format is cell-based, Staphylococcus aureus. Particulars: 20-100 min, FIG. 1. As to the method:
S. aureus (American Type Culture Collection, ATCC 25904) was grown overnight in Tryptic Soy Broth (TSB) medium, diluted 1:100 in fresh TSB, and incubated aerobically at 37° C. until bacteria growth reached a logarithmic phase (OD600=0.25-0.3).
Increasing concentrations of Triafluocyl (Cayman Chemical, Item No. 15425) or vehicle (DMSO) was then added in 5 ml of bacteria suspensions. Bacterial growth was measured after different time intervals (20-100 min) by spectrophotometry (OD600) and by counting the colony-forming units after plating appropriate culture dilutions on TS agar plates.
In FIG. 1 kinetics of S. aureus growth in the presence of an increasing concentrations (1 μg/ml to 20 μg/ml) of Triafluocyl were measured by turbidity measurement (upper graph), and viable count (lower graph). Data represent medians±range (n=3). *p<0.05; **p<0.01, ***p<0.001, Triafluocyl vs vehicle.

For another assay, the system named is S. aureus Mu50 GISA. Description: Killing curve (CFU counting). The format is cell-based, Staphylococcus aureus. The settings on record: Triafluocyl 20 μg/ml vs high dose of Minocycline; FIG. 8B. As to the method: S. aureus Mu50 GISA was grown overnight in brain heart infusion (BHI) medium, diluted 1:100 in fresh BHI, and incubated aerobically at 37° C. until bacteria growth reached a logarithmic phase (OD600=0.25-0.3).
[…] Bacterial growth was measured after different time intervals by counting the colony-forming units after plating appropriate culture dilutions on BHI agar plates.

The next assay concerns S. aureus ATCC 6538. Description: MIC determination (EUCAST, Mueller-Hinton broth). Type of assay: cell-based. The settings on record: Staphylococcus aureus, ATCC6538. As to the method: as §1, with “using different strains of” for “using”, “aureus,” for “agalactiae (ATCC 12386),”, “strains: ATCC 25904, ATCC 6538, methilcillin-resistant S. aureus (MRSA) ATCC BAA-1556, Glycopeptide intermediate-resistant (GISA) S. aureus Mu-50 (ATCC 700695)” for “strains”
MIC determination: A single colony selected from the different strains of S. aureus is resuspended and cultured in the appropriate medium overnight (O/N) in aerobic conditions (37° C. with 220 rpm shaking), next day a 1:100 inoculum in Mueller-Hinton broth (MHB) was incubated in aerobic conditions for 3 hr (OD=0.08-0.1) and an inoculum of 1:300 dilution, corresponding to 3×10^5 CFU/ml, was incubated in presence or absence of different concentrations of Triafluocyl in 1% DMSO. After O/N growth the OD of each culture was measured at 600 nm in a spectrophotometer (OD600). […]

A further assay deals with S. epidermidis biofilm. Description: Biofilm formation (crystal violet, 24-well plate). The format is cell-based, Staphylococcus epidermidis. As to the method: To study the effect of Triafluocyl on biofilm formation, S. epidermidis in early logarithmic phase (5×10^8 CFU/ml) was plated in a 24-well plate and let to adhere at the bottom of the well for 4 hr at 37° C. in static conditions. After 4 hr incubation, planktonic bacteria were removed and adherent bacteria were washed twice in TSB. Fresh TSB medium supplemented or not with 0.25% glucose was added to the well with 5 different concentrations of Triafluocyl and incubated for 24 hours. Wells were washed 3 times with NaCl 0.9% and incubated for 1 hr at RT with Crystal Violet 1% solution in dH2O to stain the biofilm. Wells were washed 3 times with dH2O to eliminate unbound crystal violet, then 400 μl Acetic Acid 10% was added and incubated at RT for 10 min. Absorbance was measured in triplicate at 570 nm, reflecting total biomass of the biofilm (live and dead bacteria). The concentration of Triafluocyl that inhibits at least 90% biofilm formation is called minimum biofilm inhibitory concentration (MBIC). Triafluocyl MBIC for S. epidermidis is 50 μg/ml both in the presence and in the absence of glucose.

On to `CCCSc1nc(N[C@@H]2C[C@H]2c2ccc(F)c(F)c2)c2nnn([C@@H]3C[C@H](OCCO)[C@@H](O)[C@H]3O)c2n1` [Triafluocyl, (1S,2S,3R,5S)-3-[7-[(1R,2S)-2-(3,4-difluorophenyl)cyclopropylamino]-5-(propylthio)-3H-[1,2,3]-triazolo[4,5-d]pyrimidin-3-yl]-5-(2-hydroxyethoxy)-1,2-cyclopentanediol], for which, in assay [1], the “MDK 99.9 Time (h) needed to kill 99.9% of the started inoculum” value stood at 1 h. In assay [1] (Streptococcus agalactiae, ATCC12386, cut-off 99.9% reduction in CFU), the MBC is 40 µg/mL (≈ 76.5 µM). Moreover, the “effect on bacterial growth (turbidity and viable count)” value with S. aureus (ATCC 25904) (10 μg/ml) was “able to inhibit bacterial growth”; in the assay with S. aureus (ATCC 25904) (20 μg/ml), “potent bactericidal effect”. Besides, the “antibacterial effect on S. aureus GISA compared with Minocycline” value with S. aureus Mu50 GISA was “quicker and more efficient antibacterial effect”. The lowest concentration to inhibit growth with S. aureus ATCC 6538 (MIC) was 20 µg/mL (≈ 38.3 µM). In the assay with S. epidermidis biofilm (20 μg/ml, presence of glucose (0.25%), 24 hours), the biofilm reduction is given as 50%. Also, in the assay on S. epidermidis biofilm (Staphylococcus epidermidis, 5 μg/ml, absence of glucose, 24 hours), the inhibition at 5 µg/mL came to 50%. Further, the “minimum biofilm inhibitory concentration (MBIC), at least 90% inhibition of biofilm formation” value in the assay with S. epidermidis biofilm (absence of glucose) and with S. epidermidis biofilm (presence of glucose) was 50 µg/mL each time.
